Measurements: ChEMBL document CHEMBL3352429, “A review on recent developments of indole-containing antiviral agents” (Eur J Med Chem, 2015)
In brackets after ≈: the same amount, converted by molar mass. Counter-ions that a name gives are not always drawn.

Key:
[1] = test system: Human alphaherpesvirus 2; experiment: Antiviral activity against Herpes simplex virus type 2; type: functional, organism-based
[2] = test system: Human immunodeficiency virus 1; experiment: Antiviral activity against HIV1; type: functional, organism-based
[3] = target: T1, Human immunodeficiency virus type 1 integrase (Human immunodeficiency virus 1, UniProt Q7ZJM1); experiment: Inhibition of HIV-1 integrase
[4] = target: T1, Human immunodeficiency virus type 1 integrase; experiment: Inhibition of HIV-1 integrase strand transfer activity
[5] = Selectivity index, ratio of CC50 for human TZM-bl cells to EC50 for HIV-1 3B; type: toxicity, cell-based; conditions: read-out: Ratio CC50/EC50
[6] = Cytotoxicity against human TZM-bl cells; type: cell-based
[7] = test system: Human immunodeficiency virus 1; experiment: Antiviral activity against HIV-1 3B infected in human TZM-bl cells; type: functional, organism-based; conditions: Human immunodeficiency virus 1, 3B
[8] = test system: Human immunodeficiency virus 1; experiment: Antiviral activity against wild type HIV1 3B infected in human C8166 cells assessed as cytopathic effect by counting the number of syncytia; type: functional, organism-based; conditions: Human immunodeficiency virus 1, 3B
[9] = Therapeutic index, ratio of CC50 for human C8166 cells to EC50 for HIV-1 3B; type: cell-based; conditions: read-out: Ratio CC50/EC50
[10] = test system: Human immunodeficiency virus 1; experiment: Antiviral activity against HIV1 infected in human peripheral blood leukocyte cells assessed as inhibition of replication; type: functional, organism-based
[11] = Cytotoxicity against human peripheral blood leukocyte cells at 100 uM; type: cell-based
[12] = test system: Human immunodeficiency virus 1; experiment: Antiviral activity against wild type HIV1 3B infected in human MT-2 cells assessed as protection of infected cells by MTT colorimetric method; type: functional, organism-based; conditions: Human immunodeficiency virus 1, 3B, MT2
[13] = test system: Human alphaherpesvirus 1; experiment: Antiviral activity against Herpes simplex virus type 1; type: functional, organism-based
[14] = Inhibition of HIV-1 integrase LEDGF/p75 (unknown origin) interaction; set-up: species or system Human immunodeficiency virus 1
[15] = read-out: ID50 (the source's name)

T1 sequence (Q7ZJM1 whole entry): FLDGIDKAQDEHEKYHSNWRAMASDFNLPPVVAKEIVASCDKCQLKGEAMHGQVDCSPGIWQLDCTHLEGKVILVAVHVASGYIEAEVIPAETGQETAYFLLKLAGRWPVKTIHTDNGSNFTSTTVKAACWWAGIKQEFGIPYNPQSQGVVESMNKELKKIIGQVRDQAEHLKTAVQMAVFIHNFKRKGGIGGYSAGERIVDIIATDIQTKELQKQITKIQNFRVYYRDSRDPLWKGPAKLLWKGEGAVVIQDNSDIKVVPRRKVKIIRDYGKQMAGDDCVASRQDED

O=C(/C=C/c1c[nH]c2c(O)cccc12)N/C=C/c1c[nH]c2ccccc12
IC50 ([1]; read-out: IC50): 1 µM

COc1ccc2c3c([nH]c2c1)C1=NCC[C@]12c1ccccc1N=CN2CC3
EC50 [2]: 0.95 µM

Cc1cc(C)cc(Cn2cc(C(=O)/C=C(\O)C(=O)O)c3c(O)cccc32)c1
IC50 [3]: 3.5 µM

COc1cccc2c1c(C(=O)/C=C(\O)C(=O)O)cn2Cc1cc(C)cc(C)c1
EC50 [2]: 4.63 µM | IC50 [4]: 5.49 µM

COc1ccc2c(c1)N=CN1CCc3c([nH]c4ccccc34)C3=NCC[C@@]321
EC50 [2]: 0.02 µM

CCOC(=O)C(O)(c1c[nH]c2ccc([N+](=O)[O-])cc12)C(F)(F)F (stereo not given)
selectivity ratio [5]: 11.1 | CC50 [6]: 211 µM | EC50 [7]: 0.019 µM

Cc1cn(-c2ccc([N+](=O)[O-])cc2)c2ccccc12
EC50 [8]: 7.88 µg/mL (≈ 31.2 µM) | selectivity ratio [9]: 24.6

O=C(/C=C/c1c[nH]c2ccccc12)N/C=C/c1c[nH]c2ccccc12 [CHONDRIAMIDE A]
IC50 ([1]; read-out: IC50): 1 µM

O=[N+]([O-])c1ccccc1-n1ccc2ccccc21
EC50 [8]: 7.88 µg/mL (≈ 33.1 µM) | selectivity ratio [9]: 24.6

CCNc1cccnc1N1CCN(C(=O)c2cc3cc(OC)ccc3[nH]2)CC1 [ATEVIRDINE MESYLATE]
IC50 [10]: 0.001 µM | Activity [11]: 50%

O=c1ccn(CCOc2ccccc2Oc2cccc3[nH]ccc23)c(=O)[nH]1
EC50 [12]: 0.085 µM

CC(C)CC(=O)[C@@H](O)Cc1c[nH]c2ccccc12
IC50 [1, 15]: 1.5 µg/mL | IC50 [13, 15]: 1.5 µg/mL (≈ 6.11 µM)

C[C@H]1c2nc(N)[nH]c2[C@]2(O)C[C@H]1c1c(-c3cnc(-c4c[nH]c5cc(Br)ccc45)c(=O)[nH]3)c[nH]c1C2=O
EC50 [2]: 0.91 µM | EC50 [13]: 95.8 µM

COc1cccc2c1c(C(=O)/C=C(\O)C(=O)O)cn2Cc1ccc(F)cc1
IC50 [14]: 36 µM

O=C(/C=C/c1c[nH]c2ccccc12)N/C=C\c1c[nH]c2ccccc12 [CHONDRIAMIDE C]
IC50 ([1]; read-out: IC50): 1 µM

O=[N+]([O-])c1ccc2c(ccn2-c2ccccc2[N+](=O)[O-])c1
EC50 [8]: 7.88 µg/mL (≈ 27.8 µM) | selectivity ratio [9]: 24.6
